The record followed here is US20250289787A1, “HERBICIDAL 2-OXO-NICOTINIC ACID DERIVATIVES” (SYNGENTA CROP PROTECTION AG, priority 2022, published 2025).

Common to all, as to format: in vivo
Holding throughout (set-up): key: 5=81-100%; 4=61-80%; 3=41-60%; 2=21-40%; 1=1-20%; 0=no damage to the plant; -=not tested

For test [1], the system named is Amaranthus palmeri (AMAPA). As to the kind of experiment: Pre-emergence test, herbicidal damage. Particulars: 1000 g/ha unless otherwise stated, evaluated after 13 days, five-point scale.
The subject of test [2] is Echinochloa crus-galli (ECHCG). As to the kind of experiment: Post-emergence test, herbicidal damage. Particulars: sprayed after 8 days cultivation, 1000 g/ha unless otherwise stated, evaluated after 13 days, five-point scale. The method in brief:
(§1)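 Herbicidal effect is expressed as a score from 0 (no damage) to 5 (81–100% damage), assessed 13 days after spraying. Compound at 1000 g/ha in acetone/water with 0.5% Tween 20 is applied to pots kept at 24 °C/16 °C, 14 h photoperiod.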

The test system of test [3] is Zea mays (ZEAMX). As to the kind of experiment: Post-emergence test, herbicidal damage. Particulars: sprayed after 8 days cultivation, 1000 g/ha unless otherwise stated, evaluated after 13 days, five-point scale. The method in brief:
as §1

Test [4] deals with Setaria faberi (SETFA). Nature of the test: Post-emergence test, herbicidal damage. The note with it: sprayed after 8 days cultivation, 1000 g/ha unless otherwise stated, evaluated after 13 days, five-point scale. In a few lines:
as §1

Test [5] relates to Ipomoea hederacea (IPOHE). Nature of the test: Post-emergence test, herbicidal damage. The note with it: sprayed after 8 days cultivation, 1000 g/ha unless otherwise stated, evaluated after 13 days, five-point scale. The method in brief: as §1
In test [6] the test system is Amaranthus retoflexus (AMARE). Nature of the test: Post-emergence test, herbicidal damage. Particulars: sprayed after 8 days cultivation, 1000 g/ha unless otherwise stated, evaluated after 13 days, five-point scale. In a few lines:
as §1

In test [7] the test system is Amaranthus palmeri (AMAPA). Nature of the test: Post-emergence test, herbicidal damage. The note with it: sprayed after 8 days cultivation, 1000 g/ha unless otherwise stated, evaluated after 13 days, five-point scale. The method in brief: as §1
For test [8], the system named is Amaranthus retoflexus (AMARE). Nature of the test: Pre-emergence test, herbicidal damage. Particulars: 1000 g/ha unless otherwise stated, evaluated after 13 days, five-point scale.
Test [9] deals with Zea mays (ZEAMX). As to the kind of experiment: Pre-emergence test, herbicidal damage. The note with it: 1000 g/ha unless otherwise stated, evaluated after 13 days, five-point scale.
In test [10] the test system is Setaria faberi (SETFA). As to the kind of experiment: Pre-emergence test, herbicidal damage. The note with it: 1000 g/ha unless otherwise stated, evaluated after 13 days, five-point scale.
For test [11], the system named is Echinochloa crus-galli (ECHCG). Nature of the test: Pre-emergence test, herbicidal damage. Particulars: 1000 g/ha unless otherwise stated, evaluated after 13 days, five-point scale.
Test [12] has as its system Ipomoea hederacea (IPOHE). As to the kind of experiment: Pre-emergence test, herbicidal damage. The note with it: 1000 g/ha unless otherwise stated, evaluated after 13 days, five-point scale.

With `Cc1[nH]c(=O)c(C(=O)O)c(-c2ccc(Cl)c(Cl)c2)c1Br` [Compound 1, 5-bromo-4-(3,4-dichlorophenyl)-6-methyl-2-oxo-1H-pyridine-3-carboxylic acid], the “percentage damage caused to the plant, AMAPA” value is 3 (3=41-60%) in test [1] and 5 (5=81-100%) in test [7]. Also, the figures for the “percentage damage caused to the plant, ECHCG” value in test [2] and in test [11] were 0 and 1 (1=1-20%), respectively. The “percentage damage caused to the plant, ZEAMX” value in the test with Zea mays (ZEAMX) [3] was 1 (1=1-20%); in the test on Zea mays (ZEAMX) [9] it was 0. For the same compound, the “percentage damage caused to the plant, SEFTA” value was 1 (1=1-20%) in the test on Setaria faberi (SETFA) [4] and 0 with Setaria faberi (SETFA) [10]. Besides, the figures for the “percentage damage caused to the plant, IPOHE” value in [5] and in [12] were 1 (1=1-20%) and 0, respectively. The “percentage damage caused to the plant, AMARE” value was 5 (5=81-100%) in [6] and 2 (2=21-40%) in test [8].

On to `CCc1c(C)[nH]c(=O)c(C(=O)O)c1-c1ccc(Cl)c(Cl)c1` [Compound 10, 4-(3,4-dichlorophenyl)-5-ethyl-6-methyl-2-oxo-1H-pyridine-3-carboxylic acid], for which the “percentage damage caused to the plant, AMAPA” value in test [1] and in test [7] was 0 each time. Besides, the “percentage damage caused to the plant, ECHCG” value in test [2] and in [11] was 0 throughout. In addition, the “percentage damage caused to the plant, ZEAMX” value in the test with Zea mays (ZEAMX) [3] and in the test with Zea mays (ZEAMX) [9] was 0 throughout. The “percentage damage caused to the plant, SEFTA” value in the test with Setaria faberi (SETFA) [4] and in the test with Setaria faberi (SETFA) [10] was 0 each time. Further, the “percentage damage caused to the plant, IPOHE” value in [5] and in test [12] was 0 each time. For the same compound, the “percentage damage caused to the plant, AMARE” value in test [6] and in test [8] was 0 each time.

Regarding `Cc1c(Br)c(-c2ccc(Cl)c(Cl)c2)c(C(=O)O)c(=O)n1Cc1ccc(C#N)cc1F` [Compound 33, 5-bromo-1-[(4-cyano-2-fluoro-phenyl)methyl]-4-(3,4-dichlorophenyl)-6-methyl-2-oxo-pyridine-3-carboxylic acid], the “percentage damage caused to the plant, AMAPA” value in test [1] and in [7] was 3 (3=41-60%) throughout. Besides, the “percentage damage caused to the plant, ECHCG” value in test [2] and in [11] was 1 (1=1-20%) throughout. Further, the “percentage damage caused to the plant, ZEAMX” value in the test on Zea mays (ZEAMX) [3] and with Zea mays (ZEAMX) [9] was 1 (1=1-20%) throughout. For the same compound, the “percentage damage caused to the plant, SEFTA” value with Setaria faberi (SETFA) [4] and in the test with Setaria faberi (SETFA) [10] was 1 (1=1-20%) throughout. The “percentage damage caused to the plant, IPOHE” value in [5] and in test [12] was 1 (1=1-20%) each time. The “percentage damage caused to the plant, AMARE” value in [6] and in test [8] was 3 (3=41-60%) each time.

As for `Cc1c(Cl)c(-c2ccc(Cl)c(Cl)c2)c(C(=O)O)c(=O)n1Cc1ccc(C(F)(F)F)cc1F` [Compound 28, 5-chloro-4-(3,4-dichlorophenyl)-1-[[2-fluoro-4-(trifluoromethyl)phenyl]methyl]-6-methyl-2-oxo-pyridine-3-carboxylic acid], the “percentage damage caused to the plant, AMAPA” value in test [1] and in test [7] was 4 (4=61-80%) each time. Also, the “percentage damage caused to the plant, ECHCG” value is reported as 0 in test [2] and 1 (1=1-20%) in [11]. Moreover, the “percentage damage caused to the plant, ZEAMX” value with Zea mays (ZEAMX) [3] and in the test on Zea mays (ZEAMX) [9] was 1 (1=1-20%) throughout. Also, the “percentage damage caused to the plant, SEFTA” value was 1 (1=1-20%) with Setaria faberi (SETFA) [4] and 0 with Setaria faberi (SETFA) [10]. Besides, the “percentage damage caused to the plant, IPOHE” value in [5] and in [12] was 1 (1=1-20%) in each case. Also, the “percentage damage caused to the plant, AMARE” value in test [6] and in test [8] was 3 (3=41-60%) in each case.

In the case of `C=Cc1c(-c2ccc(Cl)c(Cl)c2)c(C(=O)O)c(=O)n(-c2ccc(Cl)cc2F)c1C` [Compound 32, 1-(4-chloro-2-fluoro-phenyl)-4-(3,4-dichlorophenyl)-6-methyl-2-oxo-5-vinyl-pyridine-3-carboxylic acid], the “percentage damage caused to the plant, AMAPA” value in test [1] and in test [7] was 4 (4=61-80%) throughout. The “percentage damage caused to the plant, ECHCG” value in [2] was 1 (1=1-20%); in test [11], 2 (2=21-40%). Also, the “percentage damage caused to the plant, ZEAMX” value in the test with Zea mays (ZEAMX) [3] and in the test on Zea mays (ZEAMX) [9] was 1 (1=1-20%) throughout. The “percentage damage caused to the plant, SEFTA” value in the test on Setaria faberi (SETFA) [4] and in the test with Setaria faberi (SETFA) [10] was 1 (1=1-20%) throughout. The “percentage damage caused to the plant, IPOHE” value in test [5] is reported as 2 (2=21-40%); in [12] it was 1 (1=1-20%). Also, the “percentage damage caused to the plant, AMARE” value in [6] and in test [8] was 3 (3=41-60%) throughout.

`Cc1cc(-c2ccc(Cl)c(Cl)c2)c(C(=O)O)c(=O)n1-c1ncc(Cl)cc1Cl` [Compound 19, 4-(3,4-dichlorophenyl)-1-(3,5-dichloro-2-pyridyl)-6-methyl-2-oxo-pyridine-3-carboxylic acid]: the “percentage damage caused to the plant, AMAPA” value in test [1] is listed as 0; in [7] it was 1 (1=1-20%). Besides, the “percentage damage caused to the plant, ECHCG” value was 1 (1=1-20%) in [2] and 0 in [11]. The “percentage damage caused to the plant, ZEAMX” value with Zea mays (ZEAMX) [3] is given as 1 (1=1-20%); with Zea mays (ZEAMX) [9] it was 0. In addition, the “percentage damage caused to the plant, SEFTA” value in the test with Setaria faberi (SETFA) [4] is 1 (1=1-20%); with Setaria faberi (SETFA) [10] it was 0. Besides, the “percentage damage caused to the plant, IPOHE” value is given as 1 (1=1-20%) in [5] and 0 in test [12]. The “percentage damage caused to the plant, AMARE” value in [6] and in test [8] was 0 throughout.

In the case of `Cc1c(C2CC2)c(-c2ccc(Cl)c(Cl)c2)c(C(=O)O)c(=O)n1Cc1ccc(Cl)cc1F` [Compound 39, 1-[(4-chloro-2-fluoro-phenyl)methyl]-5-cyclopropyl-4-(3,4-dichlorophenyl)-6-methyl-2-oxo-pyridine-3-carboxylic acid], the “percentage damage caused to the plant, AMAPA” value in [1] and in [7] was 1 (1=1-20%) each time. Besides, the “percentage damage caused to the plant, ECHCG” value in test [2] and in test [11] was 2 (2=21-40%) in each case. Further, the “percentage damage caused to the plant, ZEAMX” value with Zea mays (ZEAMX) [3] and in the test with Zea mays (ZEAMX) [9] was 1 (1=1-20%) each time. Moreover, the “percentage damage caused to the plant, SEFTA” value is 1 (1=1-20%) with Setaria faberi (SETFA) [4] and 2 (2=21-40%) in the test on Setaria faberi (SETFA) [10]. Further, the results for the “percentage damage caused to the plant, IPOHE” value in test [5] and in test [12] were 2 (2=21-40%) and 1 (1=1-20%), respectively. The “percentage damage caused to the plant, AMARE” value in test [6] and in test [8] was 0 throughout.
